Assay results from patent EP1101499A2, “Diagnostic agents for pancreatic exocrine function” (Tokyo Gas Company Limited, priority 1999, dated 2001).
“And” between values parts separate entries of the source, which are not always exact repeats. Identical values can stand only once.

What was measured:
[1] = test system: pancreatic exocrine function; experiment: PFD test: oral BT-PABA, PABA excretion rate in urine; assay type: in vivo, rat; conditions: specificity 100%
Protocol: The rats of the model of chronic pancreatitis and control rats, which were kept for 3 to 4 weeks after the operation, were made to fast from 9:00 AM. At 4:00 PM, 3 mg/ml of BT-PABA (PFD solution for internal use, Eisai) was orally administered in an amount of 15 mg/kg. Urine was collected for 16 hours until 9:00 AM of the next day. The amount of the collected urine and the PABA concentration in the urine were determined using a PABA measuring kit to determine the excretion rate in urine (PFD test).

[2] = test system: pancreatic exocrine function; experiment: 13C-breath test after oral administration to chronic pancreatitis (oleic acid model) and control/normal rats; assay type: in vivo, rat; conditions: for Δ^13C value at 30 minutes after the administration: group value n=4, 30 mg/kg orally; for Δ^13C (mean) value at 15 minutes after the administration: mean n=2, 420 mg/kg orally; for Δ^13C value at 10 minutes after the administration / Δ^13C value at 20 minutes after the administration: group value n=4, 250 mg/kg orally
Protocol: […] The rat of 9 weeks old was fixed without anesthesia in a rat holder for a microwave irradiation apparatus. The breath was collected at a rate of about 100 to 300 ml/min using a stroke pump (Variable Stroke Pump VS-500, Shibata Kagaku Kogyo) and introduced directly to a flow cell of a ^13CO2 analyzer EX-130S (Nihon Bunko). A Perma Pure drier (MD-050-12P, Perma Pure INC.) was set between the rat holder and stroke pump to remove out water vapor in the breath. CO2 concentration was stabilized, the rat was once removed out of the rat holder and Bz-DL-Phe-(^13C-Leu).Na dissolved in distilled water was administered into the stomach using an oral sonde.
Output data from the ^13CO2 analyzer were AD converted and put into a personal computer (Apple Power Macintosh 8500). Using a data processing soft ware Lab VIEW (National Instruments), 10 data points at every 100 msec were integrated and averaged in an interval of 5 seconds and converted to ^13C atom %, Δ^13C (‰), and CO2 concentration (%). In this manner, the ^13C breath test was continuously carried out. […] CO2 concentration in the collected breath was held at 3 ± 0.5%.
Δ^13C (%o) was calculated from the ^13C concentration in the exhaled CO2 at each time point (^13C tmin) and the ^13C concentration in standard CO2 (^13C std) according to the following equation: Δ^13 (C (‰) - [()^13 (C tmin -)^13 (C 0min)/)^13 C std] x 1000 [formula]

chymotrypsin = experiment: Degradation by chymotrypsin, released leucine determined by ninhydrin reaction; assay type: biochemical, bovine; conditions: 23 mM substrate, 0.16 mg/ml chymotrypsin, 20 mM HEPPS-Na pH 8.0, 37°C, 15 minutes
Protocol: Bz-DL-Phe-(^13C-Leu) was reacted with chymotrypsin and the degradation product, leucine, generated upon action of chymotrypsin was quantitatively determined by ninhydrin reaction. The reaction was carried out in 20 mM HEPPS-Na (pH 8.0), 23 mM Bz-DL-Phe- (^13C-Leu), 0.16 mg/ml chymotrypsin (from bovine pancreas, Worthington Biochemical Corporation, #1432, Lot 37A906) at 37°C for 15 minutes. After reaction, 50 µl of citrate buffer (citric acid monohydrate), 20 µl of ninhydrin solution (50 mg/ml solution in methyl cellosolve) and 100 µl of KCN solution (0.01 M aqueous KCN solution diluted 50 times with methyl cellosolve) were added to 100 µl of the reaction mixture and heated at 100°C for 15 minutes. After cooling the ninhydrin reaction mixture to room temperature, 150 µl of 60% (V/V) ethanol was added to 100 µl of the ninhydrin reaction mixture and stirred followed by determination of an absorbance at a wave length of 570 nm. An experiment wherein all the reactions that were carried out without adding Bz-DL-Phe-(^13C-Leu) was taken as a "blank," and leucine was used as a standard.

[3] = individual chronic pancreatitis rats #1-#4, sodium salt 250 mg/kg orally
[4] = individual normal rats #1-#4, sodium salt 250 mg/kg orally

O=C(O)c1ccc(NC(=O)[C@H](Cc2ccc(O)cc2)NC(=O)c2ccccc2)cc1 [PFD, N-benzoyl-L-tyrosyl-p-aminobenzoic acid]
sensitivity in the PFD test ([1]; 15 mg/kg orally, same group of rats as the Bz-DL-Phe-(^13C-Leu) breath test (n=8 / n=4)): 50% | sensitivity in the PFD test ([1]; same group of rats as the Bz-Ala-(^13C-Ala) breath test (n=8 / n=7)): 63% | sensitivity in the PFD test ([1]; same group of rats as the Bz-Gly-(^13C-Leu) breath test (n=10 / n=10)): 50%

Arg-(^13C-Leu)
Δ^13C value at 30 minutes after the administration ([2]; chronic pancreatitis rats): 4.37 ± 1.83 %o | Δ^13C (%o) at 30 min ([2]; individual chronic pancreatitis rats #1-#4, 30 mg/kg orally): 3.74 %o and 6.97 %o and 4.87 %o and 1.92 %o | Δ^13C (%o) at 30 min ([2]; individual normal rats #1-#4, 30 mg/kg orally): 10.30 %o and 13.74 %o and 15.37 %o and 10.08 %o | Δ^13C value at 30 minutes after the administration ([2]; normal rats): 12.37 ± 2.26 %o

Bz-Ala-Ala-Ala-Ala-(^13C-Gly)-Phe-Leu
Δ^13C (%o) at 15 min ([2]; individual chronic pancreatitis rats #1-#2, sodium salt 420 mg/kg orally): -1.90 %o and 3.12 %o | Δ^13C (%o) at 15 min ([2]; individual normal rats #1-#2, sodium salt 420 mg/kg orally): 23.47 %o and 43.16 %o

Bz-Ala-Ala-Ala-Ala-(^13C-Gly)-Phe-Leu.Na
Δ^13C (mean) value at 15 minutes after the administration ([2]; chronic pancreatitis rats): 0.61 %o | Δ^13C (mean) value at 15 minutes after the administration ([2]; normal rats): 33.32 %o

Bz-DL-Phe-(^13C-Leu)
rate of degradation (chymotrypsin): 1.72 nmole/mg chymotrypsin/min

Bz-DL-Phe-(^13C-Leu).Na
sensitivity ([2]; 250 mg/kg orally, Δ^13C at 10 minutes as check value, cut off set for specificity 100%, chronic pancreatitis n=8, control n=4): 100% | Δ^13C (‰) values at 10 minutes after the administration ([2]; chronic pancreatitis rats (n=8) compared with control rats (n=4), 250 mg/kg orally): smaller than the smallest value of Δ ^13C (‰) for the control rats

Bz-Gly-(^13C-Leu)-Na
sensitivity ([2]; 50 mg/kg orally, Δ^13C at 18 minutes as check value, specificity 100%, chronic pancreatitis n=10, normal n=10): 80%

Bz-L-Phe-(^13C-Leu)
Δ^13C (%o) at 10 min [2, 3]: 1.61 %o and 3.28 %o and 17.21 %o and 5.77 %o | Δ^13C (%o) at 10 min [2, 4]: 31.29 %o and 60.25 %o and 165.37 %o and 203.16 %o

Bz-L-Phe-(^13C-Leu).Na
Δ^13C value at 10 minutes after the administration ([2]; chronic pancreatitis rats): 6.97 ± 6.09 %o | Δ^13C value at 10 minutes after the administration ([2]; normal rats): 115.02 ± 71.26 %o

Bz-Tyr-(^13C-Leu)
Δ^13C (%o) at 20 min [2, 3]: 8.76 %o and 3.58 %o and 2.44 %o and -0.15 %o | Δ^13C (%o) at 20 min [2, 4]: 111.32 %o and 65.76 %o and 21.02 %o and 80.02 %o

Bz-Tyr-(^13C-Leu).Na
Δ^13C value at 20 minutes after the administration ([2]; chronic pancreatitis rats): 3.66 ± 3.24 %o | Δ^13C value at 20 minutes after the administration ([2]; normal rats): 69.53 ± 32.50 %o
